Reference: patent EP0359745B1, “GROWTH FACTOR RECEPTOR” (IMPERIAL CANCER RESEARCH TECHNOLOGY LIMITED, priority 1987, dated 1988)
Non-standard residues stand in square brackets, D forms with d. Residues, ends and D or L forms follow the SMILES beside them.

Assays:
Mr 75000-85000 protein [1] = biological target: T1, Mr 75000-85000 protein (Mus musculus, UniProt P21729); assay: ¹²⁵I-GRP affinity labelling (EGS cross-linking) of the Mr 75000-85000 protein in Swiss 3T3 cells, SDS-PAGE and scanning densitometry; format: binding; set-up: endogenous in cells; host or cells: Swiss 3T3 cells (mouse fibroblasts)
T1 sequence (P21729 whole entry): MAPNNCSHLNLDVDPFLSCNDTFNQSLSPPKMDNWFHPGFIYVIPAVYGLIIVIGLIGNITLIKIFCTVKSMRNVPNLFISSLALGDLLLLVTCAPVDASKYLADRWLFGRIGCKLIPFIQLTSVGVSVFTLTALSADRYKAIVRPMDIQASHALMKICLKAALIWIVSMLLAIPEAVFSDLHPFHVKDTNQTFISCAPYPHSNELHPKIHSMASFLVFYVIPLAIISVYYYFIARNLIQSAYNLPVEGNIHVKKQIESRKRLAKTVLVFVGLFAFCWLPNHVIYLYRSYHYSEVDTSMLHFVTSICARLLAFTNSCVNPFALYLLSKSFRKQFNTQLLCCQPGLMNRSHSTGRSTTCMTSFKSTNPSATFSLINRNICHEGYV
Procedure: (§1) After 2.5 h the cells were washed three times at 15°C with phosphate buffered saline (PBS) ad then incubated for 15 min at 15°C In 1 ml of binding medium, pH 7.4 In the presence of the appropriate cross-linking agent at the concentration indicated. The cross-linking agents (EGS, DSS, DSP and BSCOES) were dissolved in dimethyl sulphoxide immediately prior to use and were added to medium to give a final concentration of dimethylsulphoxide of 1-2%. The cultures were rapidly rinsed twice with PBS at 4°C and solubilized in 0.1ml of 2 x sample buffer 0.2 M Tris-HCl, pH 6.8, 10% (w/v) glycerol, 6% sodium dodecyl sulphate (SDS) (w/v) 4% β-mercaptoethanol (v/v) and 2 mM ethylenediaminetetraacetic acid. Samples were immediately heated at 100°C for 3-5 min and analysed by either one or two-dimensional gel electrophoresis.
Slab gel electrophoresis was performed using 7.5% acrylamide in the separating gel ad 5% in the stacking gel, ad 0.1% SDS (31). After electrophoresis gels were stained, destained and dried down onto paper for autoradiography with Fuji X-ray film (Fuji Photo Film Co. Ltd. Japan). Dried gels were exposed to film for 4-8 days. Two-dimensional gel electrophoresis was performed as described by O'Farrell (32) using isoelectric focusing in the 1st dimension and SDS-polyacrylamide gel electrophoresis (SDS-PAGE) (8% polyacrylamide) in the second dimension. The samples prepared for isoelectric focusing containing 1.4% LKB ampholytes, pH 5-7, plus 0.6% LKD ampholytes, pH 3.5-10, 6M urea, and 2% Nonidet P-40. The Mr 75000-85000 band from autoradiograms was scanned using a Joyce-Loebl double beam densitometer and the areas under specific peaks were measured with a Hewlett-Packard digitizer.
After this time some cells were washed four times with cold (4°C) PBS supplemented with 1 mg/ml BSA, solubilized and total cell associated radioactivity was then determined in a gamma counter. […] The cells were then solubilized and samples were analyzed by SDS-PAGE. After electrophoresis, gels were dried, exposed to film and scanned as described in Materials and Methods. The areas under the individual peaks for the Mr 75000-85000 protein are shown as a function of the concentration of the unlabelled peptide and are expressed as a percentage of the control. […] The level of the Mr 75000-85000 protein expressed in arbitrary units is shown as a function of the concentration of the labelled ligand. Inset: autoradiogram of the gel used for scanning; the Mr 75000-85000 and 160,000 bands are indicated by arrows. All other experimental details were as described in Materials and Methods.
(§2) Figure 4. […] Values are expressed as percentage of the specific binding obtained in the absence of antagonists. […] Each point represents the mean of 3 determinations. […] Specific binding (B) is expressed in pmol/10⁶ cells and is shown in a double-reciprocal plot. Each point represents the mean of duplicate determinations. […] After 2 hours, the cultures were washed twice with binding medium then incubated in 1 ml containing 6 mM ethylene glycol bis (succinimidylsuccinate) (EGS) at pH 7.4 for 15 minutes at 15°C. The cultures were then washed twice with cold phosphate-buffered saline and solubilised in 0.1 ml of 2x sample buffer, then immediately heated at 100°C for 5 minutes and electrophoresed on a 10% polyacrylamide gel.
After the incubation period cultures were treated with 6 mM EGS as described in Materials and Methods. Each value is expressed as a percentage of the level of the Mr 75000-85000 protein obtained with no additons (-). Other experimental details are as described in Materials and Methods.

Swiss 3T3 cells [2] = assay: reversal of the inhibition of [¹²⁵I]EGF binding induced by GRP in Swiss 3T3 cells; format: cell-based, mouse; conditions: read-out: Half-maximal reversal of inhibition (of [¹²⁵I]EGF binding by GRP); [¹²⁵I]EGF 0.2 nM, GRP 3.6 nM, 1 hour, 37°C
Procedure: (§3) Figure 5. […] Left: Effects of antagonists on [Ca²⁺]i. Quiescent Swiss 3T3 cells grown on Cytodex 2 beads were washed twice with DMEM and incubated for 10 minutes with fura-2 tetracetoxymethyl ester at 1 »m, then washed three times and suspended in 2 ml of electrolyte solution (6) in the fluorimeter at 37°C and stirred. Fluorescence was recorded continuously in a Perkins-Elmer LS5 luminescence spectrometer with an excitation wavelength of 335 nm and emission wavelength of 510 nm. After a period of equilibration, the following additions were made: solvent, S; antagonist A at 5 »m, A, 5 and 20 »m, A, 20; antagonist D at 5»m, D, 5. […] Values are expressed as percentages of the specific binding obtained with [¹²⁵I]EGF alone at 0.2 nM. The non-specific binding was obtained by the addition of 500-fold excess of unlabelled EGF. Each point represents the mean of 6 determinations.

H69 cells = assay: growth of SCLC cell line in serum-free medium (cell number, Coulter Counter); format: cell-based
Procedure: (§4) Figure 6. […] Stock cultures of cell lines H69, H128 and H417 were maintained in RPMI 1640 medium with 10% fetal bovine serum (heat inactivated) in a humidified atmosphere of 10% CO₂:90% air at 37°C. They were passaged every 7 days. Identical growth was obtained in the serum-free medium of RPMI 1640 supplemented with HITES (29) (hydrocortisone, 10 nM; insulin, 5 »g/ml; transferrin, 100 »g/ml; 17β-estradiol, 10 nM; sodium selenite, 30 nM) and 0.25% bovine serum albumin. […] Cell number was determined at intervals over 14 days in a Coulter Counter after disaggregation of cell clumps by syringing through 19G and 21G needles. Each point represents the mean of 3 determinations.
Figure 7. Inhibition of SCLC growth in vitro by [DPro²]spantide and [DPhe⁵]spantide is concentration-dependent. Cultures of H69 cells were washed twice with RPMI 1640 medium then incubated in serum-free medium (as in Figure 6) in the absence (●) or presence of various concentrations of [DPro²]spantide (o,A) and [DPhe⁵]spantide (△,D). Cell number was determined in a Coulter Counter after disaggregation of cell clumps by syringing through 19G and 21 G needles. Samples were incubated for 13 days, when the controls (inset) had achieved 10-fold increase in number, indicated by the arrow. Each point represents the mean (± standard deviation) of 5 determinations.

H128 = assay: as above; format: cell-based; conditions: antagonist at 150 »m, reversed by washing
Procedure: as §4

H417 = assay: as above; format: cell-based; conditions: antagonist at 150 »m, reversed by washing
Procedure: as §4

Swiss 3T3 cells [3] = assay: GRP-induced DNA synthesis ([³H]thymidine incorporation) in Swiss 3T3 cells; format: cell-based, mouse
Procedure: (§5) Cell culture procedure (33), assays of DNA synthesis by ³H-thymidine incorporation (34) ad ¹²⁵I-GRP binding to intact cells (13) were performed as described previously.
Figure 3. Inhibition of GRP-induced DNA synthesis by [DPro²]spantide (A) and [DPhe⁵]spantide (D). […] After 40 hours DNA synthesis was estimated by [³H]thymidine incorporation into acid-precipitable material. […] Each point represents the mean of duplicate determinations. […] Values are expressed as a percentage of [³H]thymidine incorporation obtained in the absence of antagonists (100% = 8.6 x 10⁵ cpm per dish). Each point represents the mean of 4 determinations.

Swiss 3T3 cells [4] = assay: GRP-stimulated rise in cytosolic Ca²⁺ concentration (fura-2 fluorescence) in Swiss 3T3 cells; format: cell-based, mouse; conditions: GRP (1 nM)
Procedure: as §3

GRP receptor = biological target: T2, GRP receptor (Mus musculus, UniProt P21729); assay: specific [¹²⁵I]GRP binding to intact Swiss 3T3 cells; conditions: read-out: Half-maximal inhibition of binding
T2 construct: endogenous in cells; host or cells: Swiss 3T3 cells (mouse fibroblasts)
T2 sequence (P21729 whole entry): as above
Procedure: as §5, §2

Mr 75000-85000 protein [5] = biological target: T1, Mr 75000-85000 protein; assay: ¹²⁵I-GRP affinity labelling (EGS cross-linking) of the Mr 75000-85000 protein in Swiss 3T3 cells, SDS-PAGE and scanning densitometry; format: binding; set-up: endogenous in cells; host or cells: Swiss 3T3 cells (confluent, quiescent, intact); conditions: 2.5 h; read-out: Mr 75000-85000 protein % of control
Procedure: as §1
Slab gel electrophoresis was performed using 7.5% acrylamide in the separating gel ad 5% in the stacking gel, ad 0.1% SDS (31). […] The Mr 75000-85000 band from autoradiograms was scanned using a Joyce-Loebl double beam densitometer and the areas under specific peaks were measured with a Hewlett-Packard digitizer.
Confluent cultures of 3T3 cells were incubated with 5 nM ¹²⁵I-GRP in the presence of varying concentrations of non-radioactive ligand at 15°C for 2.5 h. […] The cells were then solubilized and samples were analyzed by SDS-PAGE. […]

Row | IC50 (Mr 75000-85000 protein [1]; read-out: Half-maximal inhibition (affinity-labelling of the Mr 75000-85000 protein)) | cross-linking of ¹²⁵I-GRP / level of the Mr 75000-85000 protein (in words) (Mr 75000-85000 protein [1]; summary of Table 1, saturating concentrations of the other mitogens) | Mr 75000-85000 protein % of control (Mr 75000-85000 protein [1]; ¹²⁵I-GRP (0.5 nM), 15°C, 2.5 h, 6 mM EGS, additions: GRP 360 nM, GRP (14-27) 30 nM, bombesin 30 nM, litorin 92 nM, neuromedin B 220 nM, [D-Arg¹,D-Pro²,D-Trp^7,9,Leu¹¹] substance P 100 »M, GRP (1-16) 3230 nM, PDGF 5 nM, EGF 83 nM, vasopressin 1000 nM, insulin 1 »g/ml, phorbol 12,13 dibutyrate 2000 nM, substance P 740 nM, substance K 880 nM, somatostatin 610 nM, neurotensin 600 nM) | IC50 (GRP receptor) | SMILES | EC50 (Swiss 3T3 cells [2]) | rate of growth in serum-free medium (H69 cells; H69, antagonist at 150 »m, reversed by washing) | IC50 (H69 cells; H69 cells, serum-free medium, 13 days, read-out: half-maximal effect (inhibition of growth)) | rate of growth in serum-free medium (H128) | rate of growth in serum-free medium (H417) | IC50 (Swiss 3T3 cells [3]; GRP 3.6 nM, 40 hours, Figure 3 right, read-out: Half-maximal inhibition of DNA synthesis) | concentration of GRP required to produce half-maximal stimulation of DNA synthesis (Swiss 3T3 cells [3]; antagonist at 20 »m, Figure 3 left) | rise in [Ca²⁺]i caused by the addition of GRP (Swiss 3T3 cells [4]; antagonist at 5 »m) | rise in [Ca²⁺]i caused by the addition of GRP (Swiss 3T3 cells [4]; antagonist at 20 »m) | remaining activity at 2 µM (Mr 75000-85000 protein [5])
1 | 20 µM | markedly inhibited | 9.7 % of control | 14 µM | CC(C)C[C@H](NC(=O)[C@H](CC(C)C)NC(=O)[C@@H](Cc1c[nH]c2ccccc12)NC(=O)[C@H](Cc1ccccc1)NC(=O)[C@@H](Cc1c[nH]c2ccccc12)NC(=O)[C@H](CCC(N)=O)NC(=O)[C@H](CCC(N)=O)NC(=O)[C@@H]1CCCN1C(=O)[C@H](CCCCN)NC(=O)[C@H]1CCCN1C(=O)[C@H](N)CCCNC(=N)N)C(N)=O [[DPro²]spantide, D-Arg-D-Pro-Lys-Pro-Gln-Gln-D-Trp-Phe-D-Trp-Leu-Leu-NH₂] (H-[dR][dP]KPQQ[dW]F[dW]LL-NH2) | 30 µM | abolished | 82 µM | abolished | abolished | 118 µM | only a slight effect | not | prevented | –
2 | – | – | – | – | CCCC(=O)O[C@@H]1[C@@H](C)[C@@]2(O)[C@@H](C=C(CO)C[C@]3(O)C(=O)C(C)=C[C@@H]23)[C@@H]2C(C)(C)[C@]12OC(=O)CCC [Phorbol 12,13-dibutyrate] | – | – | – | – | – | – | – | – | – | 99%
